# Reference: US8431700B2, “Alkylsulfonyl-2,3-dihydrospiro[indene-1,4′-piperidine] analogs as GlyT1 inhibitors, methods for making same, and use of same in treating psychiatric disorders” (Vanderbilt University, priority 2009, dated 2013)
# Biological target: T1, GlyT1 (Homo sapiens, UniProt P48067)
# T1 construct: Human placental choriocarcinoma cells endogenously expressing GlyT1; host or cells: JAR human placental choriocarcinoma cells
# T1 sequence (P48067 1-706): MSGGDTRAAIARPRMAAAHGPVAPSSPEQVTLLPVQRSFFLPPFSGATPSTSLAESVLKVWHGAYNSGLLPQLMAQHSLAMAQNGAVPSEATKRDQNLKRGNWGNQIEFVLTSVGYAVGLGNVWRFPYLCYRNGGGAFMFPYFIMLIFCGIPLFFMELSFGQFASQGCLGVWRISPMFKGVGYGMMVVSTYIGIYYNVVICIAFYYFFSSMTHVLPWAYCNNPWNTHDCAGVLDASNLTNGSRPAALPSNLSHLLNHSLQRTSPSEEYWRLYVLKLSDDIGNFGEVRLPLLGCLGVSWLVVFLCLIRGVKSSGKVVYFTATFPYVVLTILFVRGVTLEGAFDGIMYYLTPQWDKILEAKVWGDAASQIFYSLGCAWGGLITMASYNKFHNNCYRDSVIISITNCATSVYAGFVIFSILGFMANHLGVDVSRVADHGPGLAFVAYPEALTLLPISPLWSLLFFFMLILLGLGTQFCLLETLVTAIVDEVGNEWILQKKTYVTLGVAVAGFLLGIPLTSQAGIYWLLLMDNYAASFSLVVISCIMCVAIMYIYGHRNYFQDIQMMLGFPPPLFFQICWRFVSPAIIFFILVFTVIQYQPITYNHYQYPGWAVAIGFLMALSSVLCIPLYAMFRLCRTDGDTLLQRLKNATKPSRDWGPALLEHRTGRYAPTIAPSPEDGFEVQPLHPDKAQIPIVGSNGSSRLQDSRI
# Experiment: [14C]-glycine uptake in JAR cells endogenously expressing GlyT1 (scintillation proximity assay)
# Format: cell-based
# Details: 10 μM [14C]-glycine, 3 h, read-out: Potency
# Excerpt: The procedure used was analogous to that disclosed in Williams, J. B.; Mallorga P. J.; Lemaire W.; Williams D. L.; Na S.; Patel S.; Conn J. P.; Pettibone D. J.; Austin C.; Sur C.; “Development of a scintillation proximity assay for analysis of Na+/Cl−-dependent neurotransmitter transporter activity,” ANAL. BIOCHEM. 2003 Oct. 1; 321(1):31-7.
# Human placental choriocarcinoma cells (JAR cells, ATCC No. HTB-144) were obtained from the American Type Culture Collection (Manassas, Va.). JAR cells were cultured in 96-well Cytostar T plates (GE Healthcare No. RPNQ0162) in RPMI 1640 medium (Sigma-Aldrich) containing 10% fetal bovine serum, 10 mM HEPES, 1 mM sodium pyruvate, penicillin (100 μg/ml), and streptomycin (100 μg/ml). Cells were plated at a density of 1.3×10^4 cells/well and grown at 37° C. in a humidified atmosphere of 5% CO2 for 40-48 h. Culture medium was removed from the Cytostar T plate and JAR cells were incubated with 30 μl of TB1A buffer (120 mM NaCl, 2 mM KCl, 1 mM CaCl2, 1 mM MgCl2, 10 mM Hepes, 5 mM L-alanine, pH 7.5 adjusted with 1 M Tris base) with or without multiple concentrations of test compound (added at 2× final concentration) for 1 min. Then 30 μl of [^14C]-glycine (Perkin-Elmer) diluted in TB1A was added to each well to give a final concentration of 10 μM. Cytostar T plates were then incubated in the dark at room temperature for 3 h, sealed with opaque white bottom plate seals (Perkin-Elmer) and clear top plate seals (Topseal A, Perkin-Elmer), and were counted on a Top Count (Packard). Glycine uptake was determined by measuring radioactivity in each well and plotted as a function of concentration of test compound. […] Nonspecific uptake of [^14C]-glycine was determined in the presence of 10 mM cold glycine. [^14C]-taurine (American Radiolabeled Chemicals, Inc.) uptake experiments were performed according to the same protocol except that 10 mM cold taurine was used to determine nonspecific uptake. For GlyT2 assays, COS-7 (ATCC No. CRL-1651) cells were utilized. COS-7 cells were transiently transfected with the human GlyT2 cDNA (Origene Technologies Inc., SC303452) using Fugene 6 (Roche) according to the manufacturer's instructions in Dulbecco's modified Eagle's medium (DMEM, Invitrogen) containing 10% Fetal Bovine Serum, 10 mM HEPES, 1 mM sodium pyruvate, penicillin (100 μg/ml), and streptomycin (100 μg/ml). The following day, the cells were plated at a density of 5×10^5 cells/well in Cytostar T plates and maintained at 37° C. in a humidified atmosphere of 5% CO2 for 24 h. GlyT2 glycine uptake experiments were performed according to the same protocol previously described.
row,IC50 [nM],Structure (SMILES)
1,1300,"CCCS(=O)(=O)N1CCC2(CC1)c1ccccc1CC2NC(=O)c1ccc(Cl)cc1Cl (single isomer, unassigned) [Compound 7c]"
2,1000,CCCS(=O)(=O)N1CCC2(CC1)c1ccccc1CC2NC(=O)c1ccc(Cl)cc1 (centres unmarked) [Compound 5a]
3,1160,CCCS(=O)(=O)N1CCC2(CC1)c1ccccc1CC2NC(=O)c1c(F)cccc1F (centres unmarked) [Compound 5b]
4,609,CCCS(=O)(=O)N1CCC2(CC1)c1ccccc1CC2NC(=O)c1ccc(Cl)c(Cl)c1 (centres unmarked) [Compound 5c]
5,674,CCCS(=O)(=O)N1CCC2(CC1)c1ccccc1CC2NC(=O)c1ccccc1C(F)(F)F (centres unmarked) [Compound 5d]
6,1600,CCCS(=O)(=O)N1CCC2(CC1)c1ccccc1CC2NC(=O)c1cccc(C(F)(F)F)c1 (centres unmarked) [Compound 5e]
7,270,CCCS(=O)(=O)N1CCC2(CC1)c1ccccc1CC2NC(=O)c1ccc(C(F)(F)F)cc1 (centres unmarked) [Compound 5f]
8,2700,CCCS(=O)(=O)N1CCC2(CC1)c1ccccc1CC2NC(=O)c1ccccc1OC (centres unmarked) [Compound 5g]
9,266,CCCS(=O)(=O)N1CCC2(CC1)c1ccccc1CC2NC(=O)c1ccccc1I (centres unmarked) [Compound 5h]
10,3500,Cn1cnc(S(=O)(=O)N2CCC3(CC2)c2ccccc2CC3NC(=O)c2ccc(Cl)cc2Cl)c1 (centres unmarked) [Compound 7a]
11,52,CCCS(=O)(=O)N1CCC2(CC1)c1ccccc1CC2NC(=O)c1ccc(Cl)cc1Cl (centres unmarked) [Compound 7d]

# More lines, now with the values behind:
row,Structure (SMILES),IC50 [nM]
1,CS(=O)(=O)N1CCC2(CC1)c1ccccc1CC2NC(=O)c1ccc(Cl)cc1Cl (centres unmarked) [Compound 2a],> 10000
2,CCS(=O)(=O)N1CCC2(CC1)c1ccccc1CC2NC(=O)c1ccc(Cl)cc1Cl (centres unmarked) [Compound 2b],> 10000
3,CCCS(=O)(=O)N1CCC2(CC1)c1ccccc1CC2NC(=O)c1ccc(Cl)cc1Cl (centres unmarked) [Compound 2c],450
4,CC(C)S(=O)(=O)N1CCC2(CC1)c1ccccc1CC2NC(=O)c1ccc(Cl)cc1Cl (centres unmarked) [Compound 2e],> 10000
5,CCCCS(=O)(=O)N1CCC2(CC1)c1ccccc1CC2NC(=O)c1ccc(Cl)cc1Cl (centres unmarked) [Compound 2f],> 10000
6,O=C(NC1Cc2ccccc2C12CCN(S(=O)(=O)c1cccs1)CC2)c1ccc(Cl)cc1Cl (centres unmarked) [Compound 2i],> 10000
7,Cn1cnc(S(=O)(=O)N2CCC3(CC2)c2ccccc2CC3NC(=O)c2ccccc2Cl)c1 (centres unmarked) [Compound 4a],18
8,Cn1cnc(S(=O)(=O)N2CCC3(CC2)c2ccccc2CC3NC(=O)c2ccc(Cl)cc2)c1 (centres unmarked) [Compound 4b],15
9,Cn1cnc(S(=O)(=O)N2CCC3(CC2)c2ccccc2CC3NC(=O)c2ccc(F)cc2F)c1 (centres unmarked) [Compound 4c],18
10,Cn1cnc(S(=O)(=O)N2CCC3(CC2)c2ccccc2CC3NC(=O)c2c(F)cccc2F)c1 (centres unmarked) [Compound 4d],10
11,Cn1cnc(S(=O)(=O)N2CCC3(CC2)c2ccccc2CC3NC(=O)c2ccc(Cl)c(Cl)c2)c1 (centres unmarked) [Compound 4e],53
12,Cn1cnc(S(=O)(=O)N2CCC3(CC2)c2ccccc2CC3NC(=O)c2ccccc2C(F)(F)F)c1 (centres unmarked) [Compound 4f],24
13,Cn1cnc(S(=O)(=O)N2CCC3(CC2)c2ccccc2CC3NC(=O)c2cccc(C(F)(F)F)c2)c1 (centres unmarked) [Compound 4g],310

# System: GlyT1
# Experiment: not given
# Details: cited from earlier work
row,Structure (SMILES),Duration of increased glycine levels in the prefrontal cortex [h]
1,CN(CC[C@@H](Oc1ccc(-c2ccccc2)cc1)c1ccc(F)cc1)CC(=O)O [(R)-NFPS],> 24

# Biological target: T1, GlyT1
# Experiment: Saturation [14C]-glycine uptake in JAR cells to determine mode of inhibition
# Format: cell-based
# Details: in the presence of 1 nM NFPS; control Km=28.97 μM; read-out: Km of [14C]-glycine transport
# Experimental: To determine the mode of inhibition of GlyT1 inhibitors, a previously published assay for saturation glycine uptake was utilized. Briefly, human placental choriocarcinoma (JAR) cells (ATCC Catalog #HTB-144) were obtained from the American Type Culture Collection (Manassas, Va.). JAR cells were plated at a density of 12,000 cells/well in Cytostar-T 96 well plates (Amersham) in RPMI 1640 Media (Sigma, Catalog #R8758) containing 10 mM HEPES, 1 mM Sodium Pyruvate, 10% fetal bovine serum, 1× Antibiotic/Antimycotic (Invitrogen, Catalog #15240-062), and 4.5 g/L glucose 48 hours prior to the assay. Cell cultures were maintained at 37° C. in an atmosphere of 95% air, 5% CO2. On the day of the assay, culture media was removed, and 30 μL of T1BA buffer (120 mM NaCl, 2 mM KCl, 1 mM CaCl2, 1 mM MgCl2, 10 mM HEPES, 5 mM L-alanine, pH 7.5 using 1M tris base) with or without 2× drug was added to the JAR cells. Plates were incubated for 5 minutes at room temperature, followed by the addition of 30 μL of 2×[^14C]-glycine (111.7 mCi/mmol, obtained from Perkin-Elmer) made up in T1BA Buffer to give final concentrations as indicated. Aliquots of each concentration of [^14C]-glycine were saved in triplicate for direct determination of their concentration via liquid scintillation counting for each assay. Plates were incubated in the dark at room temperature for 3-4 hours and sealed 96-well Cytostar T plates were counted on a Top Count (Perkin-Elmer) with a 1 minute count time per well. Nonspecific uptake was determined in the presence of 10 mM cold glycine. Fixed concentrations of representative compounds and known competitive (ACPPB) and non-competitive inhibitors (NFPS) were included in each assay as comparators.
# Data were analyzed by non-linear regression analysis using GraphPad Prism 4.0 (GraphPad, La Jolla, Calif.). Uptake curves were fit to a Michaelis-Menton type equation: V=(Vmax*[S])/(Km+[…]), where V=Velocity in counts per minute (CPM), Vmax=Maximum Velocity in CPM, [S]=Substrate Concentration, and Km is the concentration of substrate to elicit 50% of the Maximal Velocity. Data were additionally plotted as Eadie-Hofstee plots of V versus V/[S] to better visualize the mode of inhibition. […] As an example of the disclosed series of compounds, 9UD was tested side-by-side with known competitive (ACPPB) and non-competitive (NFPS) inhibitors of glycine transport.
row,Structure (SMILES),Km [µM]
1,"CN(CCC(Oc1ccc(-c2ccccc2)cc1)c1ccc(F)cc1)CC(=O)O (centres unmarked) [NFPS, (N-[3-(4′-fluorophenyl)-3-(4′-phenylphenoxy)propyl])sarcosine]",30.7

# Same assay, conditions: in the presence of 1 nM NFPS; control Vmax=16056 CPM
row,Structure (SMILES),Vmax of [14C]-glycine transport [CPM]
1,"CN(CCC(Oc1ccc(-c2ccccc2)cc1)c1ccc(F)cc1)CC(=O)O (centres unmarked) [NFPS, (N-[3-(4′-fluorophenyl)-3-(4′-phenylphenoxy)propyl])sarcosine]",9298

# Same assay, conditions: in the presence of 5 nM ACPPB; control Vmax=20508 CPM
row,Vmax of [14C]-glycine transport [CPM],Structure (SMILES)
1,21592,CCCS(=O)(=O)N1CCC(c2ccccc2)([C@H](C)NC(=O)c2ccc(Cl)cc2N)CC1 [ACPPB]

# Same assay, conditions: in the presence of 400 nM 9UD; control Vmax=20495 CPM
row,Vmax of [14C]-glycine transport [CPM],Structure (SMILES)
1,20699,CCCCS(=O)(=O)N1CCC2(CC1)c1ccccc1CC2NC(=O)c1ccc(Cl)cc1Cl (centres unmarked) [Compound 9UD]

# Same assay, conditions: with respect to glycine; Eadie-Hofstee analysis
row,Mode of inhibition of GlyT1 glycine transport,Structure (SMILES)
1,competitive inhibition,CCCS(=O)(=O)N1CCC(c2ccccc2)([C@H](C)NC(=O)c2ccc(Cl)cc2N)CC1 [ACPPB]
2,competitive inhibition,CCCCS(=O)(=O)N1CCC2(CC1)c1ccccc1CC2NC(=O)c1ccc(Cl)cc1Cl (centres unmarked) [Compound 9UD]

row,Structure (SMILES),Mode of inhibition of GlyT1 glycine transport
1,"CN(CCC(Oc1ccc(-c2ccccc2)cc1)c1ccc(F)cc1)CC(=O)O (centres unmarked) [NFPS, (N-[3-(4′-fluorophenyl)-3-(4′-phenylphenoxy)propyl])sarcosine]",non-competitive inhibition
